Assay results as given in patent publication US12240854B2, “TRAF 6 inhibitors” (Helmholtz Zentrum München - Deutsches Forschungszentrum für …, priority 2018, dated 2025).
Entries after “also recorded” stand apart in the source; their conditions may differ.

What was measured:
TRAF6 = biological target: T1, TRAF6 (Homo sapiens, UniProt Q9Y4K3); assay: In vitro ubiquitination assay (Western blot), TRAF6 with Ubc13/Uev1a; type: biochemical
T1 construct: GST (N, cleaved yes); made in house; host or cells: E. coli BL21 codon plus RIPL (TRAF6); E1, E2 complex and ubiquitin from Boston Biochem
T1 sequence (Q9Y4K3 with tags, fused parts or gaps): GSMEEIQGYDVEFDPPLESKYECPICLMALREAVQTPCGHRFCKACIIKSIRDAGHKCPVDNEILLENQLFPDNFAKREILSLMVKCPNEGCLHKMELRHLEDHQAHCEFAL
Description: The ability of TRAF6 to form K63-linked poly-ubiquitin chains in conjunction with Ubc13 was analyzed after compound treatment. Therefore, untagged TRAF6WT and TRAF6D57K, respectively were recombinantly purified. 0.125 μM of TRAF6 protein was pre-incubated with DMSO or compound in a total volume of 100 μL in K63 assay buffer ([…] Tris —HCl pH 7.6; […] MgCL2; […] creatine phosphate; 0.3 U/mL inorganic pyrophosphatase; 0.3 U/mL creatine phosphokinase) for 30 minutes at room temperature. Small aliquots for input samples were taken. A master mix containing 0.01 μM E1-activating enzyme (UBE1) (Boston Biochem), 0.2 μM E2-conjugating enzyme complex (Ubc13/Uev1a) (Boston Biochem), 1 mM ZnCl2, 2 mM ATP und 4 μM mono-ubiquitin (Boston Biochem) was added to the TRAF6 protein and the reaction mixture was incubated for 120 minutes at 37° C. The reaction was stopped by adding 4×SDS loading buffer and boiling at 95° C. for 5 minutes. The input samples were analyzed using the Pierce Silver Stain Kit (Thermo Fisher Scientific). Ubiquitination was detected in Western Blot analysis using an ubiquitin antibody.

E6AP = biological target: T2, E6AP (Homo sapiens, UniProt Q05086); assay: In vitro ubiquitination assay, E6AP ubiquitin ligase kit; type: biochemical
T2 construct: purchased Boston Biochem
T2 sequence (Q05086 whole entry): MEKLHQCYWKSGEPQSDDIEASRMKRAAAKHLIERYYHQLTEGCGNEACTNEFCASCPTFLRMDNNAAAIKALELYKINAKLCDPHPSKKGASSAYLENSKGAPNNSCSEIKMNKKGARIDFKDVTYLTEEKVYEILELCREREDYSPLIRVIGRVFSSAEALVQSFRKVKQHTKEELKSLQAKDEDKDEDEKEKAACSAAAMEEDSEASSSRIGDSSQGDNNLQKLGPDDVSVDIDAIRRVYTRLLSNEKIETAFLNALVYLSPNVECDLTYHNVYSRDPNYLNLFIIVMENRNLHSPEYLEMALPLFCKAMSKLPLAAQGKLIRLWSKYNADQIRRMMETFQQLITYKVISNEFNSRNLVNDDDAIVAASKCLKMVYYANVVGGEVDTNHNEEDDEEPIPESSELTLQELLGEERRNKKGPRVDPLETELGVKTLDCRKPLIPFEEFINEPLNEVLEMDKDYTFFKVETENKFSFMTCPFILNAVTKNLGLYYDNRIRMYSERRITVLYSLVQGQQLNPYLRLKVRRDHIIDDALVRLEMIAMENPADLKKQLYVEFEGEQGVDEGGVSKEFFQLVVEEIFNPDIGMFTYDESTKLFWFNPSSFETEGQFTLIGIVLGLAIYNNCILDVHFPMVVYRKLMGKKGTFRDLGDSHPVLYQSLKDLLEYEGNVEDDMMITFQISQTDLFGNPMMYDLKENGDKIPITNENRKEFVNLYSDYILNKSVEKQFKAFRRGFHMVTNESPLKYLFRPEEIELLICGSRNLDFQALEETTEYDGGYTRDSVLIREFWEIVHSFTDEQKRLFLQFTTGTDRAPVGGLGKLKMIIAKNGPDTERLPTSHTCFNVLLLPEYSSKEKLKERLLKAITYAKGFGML
Description: For analysis of cIAP1, MDM2, TRIM63, RNF4, ITCH and E6AP mediated poly-ubiquitination, the respective ubiquitin ligase kit from Boston Biochem (K-102, K-260, K-200B, K-220, K-240 and K-270) was used. Here, reaction buffer, E1, E2 and E3 enzyme (and p53 substrate in case of MDM2) were mixed and pre-incubated with compound or DMSO for 5 minutes at room temperature before adding Mg^2+-ATP and mono-ubiquitin for reaction start. Ubiquitination was visualized by Western Blot analyses.

[1] = system: IKK kinase activity in Jurkat T-cells; assay: IKK kinase assay in Jurkat T-cells; type: cell-based, human; conditions: PMA/Ionomycin
Description: For MEF cells, 5.5×10^5 cells were seeded, then treated with compound for 6 hours and eventually stimulated with IL-1β or TNFα for 8 minutes. 1×10^6 Jurkat T-cells were treated with compound for 6 hours and finally stimulated with PMA (400 ng/ml) and lonomycin (600 ng/ml) for 8 minutes. After cell lysis in Co-IP lysis buffer (150 mM NaCl; 25 mM Hepes (pH 7.5); 0.2% NP-40; 1 mM Glycerol; 10 mM NaF; 8 mM β-Glycerophosphat; 1 mM DTT; 300 μM Sodium-vanadate; complete protease inhibitor), input samples were taken and the supernatant was then incubated with 6 μL IKKγ antibody FL-419 (Santa Cruz Biotechnology). Upon incubation with Protein-G-Sepharose beads (GE Healthcare), beads were washed in Co-IP wash buffer (150 mM NaCl; 25 mM Hepes (pH 7.5); 0.2% NP-40; 1 mM Glycerol) and transferred into kinase reaction buffer ([…] HEPES pH7.9; 10 mM MgCl2; 20 μM ATP; 20 mM β-Glycerophosphat; 200 μM Sodium-Vanadate; 1 mM DTT) supplemented with […] GST-IκBα (1-53) and 0.5 μL ^32P-γ-ATP. After 30 minutes incubation at 37° C., reaction was stopped and analyzed by autoradiography as well as Western Blot after separation on SDS-PAGE.

[2] = system: TRAF6 auto-ubiquitination in Jurkat T-cells; assay: Immunoprecipitation of TRAF6 for endogenous ubiquitination, Jurkat T-cells; type: cell-based, human; conditions: PMA/Ionomycin
CYP450 = assay: ADME: CYP450 inhibition; type: in vitro ADME
Description: All ADME (plasma stability, plasma protein binding, microsomal stability, Log D, Caco-2 assay, CYP450 inhibition and hERG predictor assay) as well as pharmacokinetic studies (Tmax, Cmax, AUC0-240min, Mean Residence Time, Elimination half life, Elimination rate constant, Volume of Distribution and Clearance) of C25-140 (compound 3) were conducted by Bienta Enamine Biology Services of Bienta/Enamine Ltd.

[3] = system: primary murine CD4+ T-cells; assay: Primary mouse CD4+ T-cells, CD3/CD28 stimulation (qRT-PCR, ELISA); type: cell-based; conditions: primary naive CD4+ T-cells
Description: For MEF cells, 1.2×10^5 cells per sample were seeded, treated with compound for 6 hours and stimulated with either IL-1β or TNFα for 60 minutes. […] RNA was isolated according to the manufacturer's protocol of the Qiagen RNeasy Kit (MEF cells) or the STRATEC INVITRAP® SPIN UNIVERSAL RNA MINI KIT (Jurkat T-cells). The isolation of mRNA from […] white adipose tissue from DIO mice was performed using TRIzol® Reagent according to manufacturer's instruction. To clear the isolated RNA from genomic DNA, samples (up to 5 μg RNA) were treated with RQ1 RNase-Free DNaseI (Promega) as described in the technical manual. […] For quantification of cDNA in the samples, the LightCylcer480 (Roche) and the KAPA SYBR FAST qPCR Kit were used. For relative quantification, the ΔΔCp method first described by Pfaffl (Pfaffl, M. W., A new mathematical model for relative quantification in real-time RT-PCR. Nucleic Acids Res, 2001. 29(9): p. e45) was applied. […]
For measurement of cytokine secretion, 2×10^5 Jurkat T-cells or primary CD4^+ T-cells or human PBMCs per sample were seeded, treated with compound for 6 hours and stimulated as indicated. 20 hours after stimulation, supernatants were harvested and analyzed with the IL-2, IL-1β and TNFα Ready-Set-Go! […]

## Cc1nn(-c2ccc3nnc(C)n3n2)c(C)c1CCC(=O)N1CCC(Cc2ccccc2)CC1 [Example C25-140, 1-(4-Benzylpiperidin-1-yl)-3-(3,5-dimethyl-1-(3-methyl-[1,2,4]-triazolo-[4,3-b]-pyridazin-6-yl)-1H-pyrazol-4-yl)-propan-1-one]
TRAF6
  ability of TRAF6 and Ubc13 to form free poly-ubiquitin chains: dose-dependently diminished TRAF6 E3 ligase activity; also recorded: dose-dependently impairs
E6AP
  S5A ubiquitination by E6AP: not influenced; also recorded: not affected
[1]
  IKK kinase activity: reduced; also recorded: diminished
[2]
  TRAF6 auto-ubiquitination upon TCR stimulation: dose-dependently diminished; also recorded: dose-dependently reduced
CYP450
  CYP450 inhibition: some inhibitory potential on selected CYPs
[3]
  IL-2 mRNA expression: impaired
  IL-2 protein secretion: counteracted; also recorded: impaired
